Test results: US20190365754A1, “METHOD OF ELIMINATING STEM CELLS” (Yissum Research Development Company Of The Hebrew …, priority 2014, published 2019)

Assays:
[1] = system: beta catenin, p53, DNA damage response; assay: Stabilization of beta catenin and p53 and DNA damage response by CKI inhibitors
normal BM cells = assay: In vitro inhibitor test, normal cell number in 1:1 mixed CML/normal bone marrow culture; assay type: cell-based, mouse; details: increasing concentration of inhibitor
Experimental: (§1) Freshly isolated bone marrow from CML carrying mice was mixed with normal mice bone marrow in a 1:1 ratio and grown in RPMI supplemented with 15% FCS L-Glutamine, Pen/Strep, Hepes, Sodium Pyruvate, non-essential amino acids (Beit Haemek). PF670462 inhibitor was dissolved in DMSO and added to the tissue culture medium at the indicated concentrations and 0.1% DMSO. As for control, the cells were treated with vehicle only. After 36-48 h, cells were harvested and counted manually using a camera and standard inverted light microscope. Dead cells were excluded using Trypan Blue (sigma). The number of normal and BCR-ABL expressing cells was later extrapolated according to FACS analysis of % GFP^+/7AAD^− expressing cells. AnnexinV-PE (MBL), 7AAD (Tonbo) staining was evaluated by FACS according to manufacturer's recommendation.

Wnt and p53 pathway = assay: Quantitative RT-PCR of p53 and Wnt targets in inhibitor-treated bone marrow cells; assay type: cell-based, mouse; details: bone marrow cells treated in vitro; FIG. 5B
Experimental: as §1
Total RNA from cells was extracted using DirectZol RNA miniprep (Zymed). cDNA was generated using a poly(dT) oligonucleotides (IDT) and MMLV—Reverse Transcriptase (Invitrogen) and amplified on a 7900HT Real Time PCR System (Applied Biosystems) using Platinum® SYBR® Green (Invitrogen) according to the manufacturer's instructions. At least triplicate reactions were performed for each gene. Melting curve analysis was performed after each run to control for the nonspecific PCR products and primer dimers. […]

β-catenin, p53, c-Myc = assay: Western blot of bone marrow from inhibitor-treated CML carrying mice; assay type: in vivo, mouse; details: daily i.p. 60 mg/Kg; FIG. 6B
Experimental: (§2) The PF670462 was dissolved in 20% 2-hydroxypropyl β-cyclodextrin (vehicle) and administered by daily I.P. of 60 mg/Kg starting 7 hour after disease transfer. The control mice were treated with the vehicle only.
Whole cell lysate were extracted in the presence of protease and phosphatase inhibitors from the bone marrow of CML carrying mice treated with either vehicle or PF670462.
Protein extracts, separated by […] and transferred onto nitrocellulose membranes, were probed with antibodies against beta-catenin, c-Myc, p53 and HSP90. Proteins of interest were detected with HRP-conjugated Donkey/Rabbit anti-mouse IgG antibody (1:5000. GE Healthcare, Uppsala, Sweden) and visualized with the Pierce ECL Western blotting substrate (Thermo Scientific, Rockford, Ill.), according to the provided protocol.

leukemic cells = assay: 7AAD-/Annexin+ apoptosis assay, leukemic cells; assay type: cell-based, mouse; details: FIG. 5D
Experimental: as §1

[2] = system: BCR-ABL expressing (GFP+) leukemic cells; assay: In vitro inhibitor test, leukemic cell number in 1:1 mixed CML/normal bone marrow culture; assay type: cell-based; details: increasing concentration of inhibitor
Experimental: as §1

WT BM cells = assay: 7AAD-/Annexin+ apoptosis assay, WT BM cells; assay type: cell-based, mouse; details: FIG. 5D
Experimental: as §1

[3] = system: leukemia initiating cells (LIC); assay: BCR-ABL CML blast crisis mouse model, in vivo treatment
Experimental: To generate the BCR-ABL-inducible CML model, BM cells from MxCre^− Ck1α1^fl/fl or MxCre^+ Ck1 α1^fl/fl were extracted and enriched for cKit expressing cells (EasySep #18757) and incubated overnight in RPMI supplemented with 15% FCS L-Glutamine, Pen/Strep (Beit Haemek) and stem cell factor (SCF), IL-3, IL-6 and TPO (Peprotech). The culture was then infected with p210BCR-ABL-IRES-GFP retrovirus construct containing supernatant medium for 4 hours and returned to medium for additional 24 h. The culture was then injected I.V. into sub-lethally irradiated (500 rad) mice. Upon detectable steady increase of GFP expressing cells in the mice peripheral blood (by FACS) and rise in leukocyte numbers and immature cells (detected by Wright-Giemsa stained blood films) the mice were sacrificed and their bone marrow was transferred to sub-lethally irradiated WT hosts.
Each such transfer was termed disease generation. By the fourth transfer, the hosts were no longer sub-lethally irradiated prior to disease transfer and the time between generations was shorter (usually 10 days). Blast crisis development was easily detectable by the highly abnormal number of blast cells (more than 30% of WBC in PB) and the shortening time between transfers. The experimental procedure is illustrated in FIG. 3. Experiments were performed on late generation diseases in which blasts were easily detectable, no irradiation of hosts was necessary and the generation time was short (up to 14 days). Mice were monitored daily for cachexia, lethargy, and ruff coats, paralysis and moribund mice were sacrificed.
as §2

[4] = bone marrow of inhibitor-treated mice transplanted to lethally irradiated mice, one month after transplantation

Q: How did the “induction of a DNA damage response” value [1] turn out when `NC(=O)c1ccc(-c2nc(-c3ccc4c(c3)OCCO4)c(-c3ccccn3)[nH]2)cc1` [D4476] was run?
A: Its value is “nor do they induce a DNA damage response”.

Q: And the “stabilization of beta catenin and p53” value [1]?
A: Its value is “none of these agents stabilize beta catenin and p53”.

Q: With `Nc1nccc(-c2c(-c3ccc(F)cc3)ncn2C2CCCCC2)n1` [PF670462] as the compound, how does the “normal BM cell number” value (normal BM cells) read?
A: The value was “only slightly reduced”.

Q: What about the “expression of Wnt and p53 targets (RT-PCR)” value (Wnt and p53 pathway) of the same compound?
A: Its value is “upregulation of Wnt and p53 in a dose dependent manner”.

Q: And the “β-catenin, p53 and c-Myc protein in bone marrow (Western blot)” value (β-catenin, p53, c-Myc)?
A: Its value is “stabilization of β-catenin and p53 and induction of the Wnt target gene c-Myc”.

Q: And the “apoptotic cell rate (7AAD-/Annexin+)” value (leukemic cells)?
A: Its value is “increase in apoptotic cell rate under the inhibitor treatment in a dosage dependent manner”.

Q: And the “decline in leukemic cell number” value [2]?
A: The value was “much more prominent”.

Q: What about the “apoptotic cell rate (7AAD-/Annexin+)” value (WT BM cells) of the same compound?
A: Its value is “not significantly effected”.

Q: And the “bone marrow reconstitution of secondary recipients (LT-HSC integrity)” value [3, 4]?
A: The value was “fully reconstitute”.

Q: And the “leukemia GFP+ cells in peripheral blood of secondary recipients” value [3, 4]?
A: The value was “no evidence of leukemia GFP+ cells”.

Q: What about the “GFP+ leukemic cells in peripheral blood” value ([3]; daily i.p. 60 mg/Kg starting 7 hour after disease transfer, FIG. 6C) of the same compound?
A: The value was “almost undetectable”.

Q: What about the “bone marrow / vertebrate histology” value ([3]; daily i.p. 60 mg/Kg, FIG. 6D) of the same compound?
A: Its value is “normal bone marrow appearance with intact vertebrates”.

Q: And the “blasts in peripheral blood” value ([3]; daily i.p. 60 mg/Kg, FIG. 6E)?
A: The value was “no blast were detected”.

Q: What about the “survival of leukemic mice” value ([3]; daily i.p. 60 mg/Kg, vehicle group died within 12 days, FIG. 6F) of the same compound?
A: The value was “remained alive”.

Q: For `COc1cc(OC)c(C=C2C(O)=Nc3ccccc32)c(OC)c1` [IC261], which “induction of a DNA damage response” value [1] is on record?
A: The value was “nor do they induce a DNA damage response”.

Q: And the “stabilization of beta catenin and p53” value [1]?
A: The value was “none of these agents stabilize beta catenin and p53”.

Q: With `NCCNS(=O)(=O)c1ccc(Cl)c2ccncc12` [CKI7] as the compound, how does the “induction of a DNA damage response” value [1] read?
A: The value was “nor do they induce a DNA damage response”.

Q: What about the “stabilization of beta catenin and p53” value [1] of the same compound?
A: Its value is “none of these agents stabilize beta catenin and p53”.
